The source of these data is ChEMBL document CHEMBL2440023, “Biological activity of 3-chloro-azetidin-2-one derivatives having interesting antiproliferative activity on human breast cancer cell lines” (Bioorg Med Chem Lett, 2013).

The structures appear in SMILES notation. Activity calls are given as the source filed them. The calls are words filed in the database; no cut-off is given here.

The test system of one data set is NIH3T3. Briefly: Cytotoxicity against mouse 3T3 cells assessed as cell viability at 5 to 20 uM after 72 hrs by MTT assay. The data set is classed as cell-based. Conditions: nih3t3, 72 h. In general terms: Tetrazolium dyes change colour on reduction, which living cells bring about.
Data set [1] has as its system SK-BR-3. Briefly: Cytotoxicity against ER-negative human SKBR3 cells assessed as growth inhibition at 20 uM after 72 hrs by MTT assay. The format is functional, cell-based.
For data set [2], the system named is MCF7. Briefly: Cytotoxicity against ER-positive human MCF7 cells assessed as growth inhibition at 10 to 20 uM after 72 hrs by MTT assay. The format is functional, cell-based.
Data set [3] can be described thus: Stability of the compound in simulated gastric/intestinal fluid assessed as compound remaining at 10 mM after 6 hrs by UV/Vis spectroscopic analysis in presence of porcine pepsin and pancreatin relative to control. The data set is classed as physicochemical. The note with it: pig; read-out: Stability.
For data set [4], the system named is SK-BR-3. Briefly: Cytotoxicity against ER-negative human SKBR3 cells assessed as growth inhibition after 72 hrs by MTT assay. The data set is classed as functional, cell-based. The note with it: for IC50: SK-BR-3, 72 h.
Data set [5] deals with MCF7. Briefly: Cytotoxicity against ER-positive human MCF7 cells assessed as growth inhibition after 72 hrs by MTT assay. The data set is classed as functional, cell-based. The note with it: for IC50: MCF7, 72 h.
The test system of data set [6] is SK-BR-3. In words: Cytotoxicity against ER-negative human SKBR3 cells assessed as growth inhibition at 10 to 20 uM after 72 hrs by MTT assay. The data set is classed as functional, cell-based.
Data set [7] relates to MCF7. Briefly: Cytotoxicity against ER-positive human MCF7 cells assessed as growth inhibition at 20 uM after 72 hrs by MTT assay. The data set is classed as functional, cell-based.
Data set [8] relates to MCF7. In words: Cytotoxicity against ER-positive human MCF7 cells assessed as growth inhibition at 1 uM after 72 hrs by MTT assay. The format is functional, cell-based.

Turning to `Cc1ccc(C2C(Cl)C(=O)N2c2ccc(C)cc2)cc1` (stereo unspecified), the Activity result in the data set on NIH3T3 is on record as “Non-toxic”. In addition, the “growth inhibition (GI)” value in the data set with SK-BR-3 [1] is “Active”. Further, in the data set on MCF7 [2], the “growth inhibition (GI)” value is “inactive”. The remaining at 6 h, 10000 µM in data set [3] is 79%.

In the case of `O=C1C(Cl)C(c2ccc(Cl)cc2)N1c1ccc(I)cc1` (stereo unspecified), the Activity result in the data set with NIH3T3 was “Non-toxic”. In the data set on SK-BR-3 [4], the “growth inhibition (GI)” value was “Dose-dependent effect” and the IC50 came to 9.51 µM. Further, in the data set on MCF7 [5], the “growth inhibition (GI)” value was “Dose-dependent effect” and the IC50 came to 11.8 µM. In data set [3], the remaining at 6 h, 10000 µM was 70%.

`O=C1C(Cl)C(c2ccccc2)N1c1ccc(Cl)cc1` (stereo unspecified): in the data set on NIH3T3, the Activity result is reported as “Non-toxic”. Moreover, the “growth inhibition (GI)” value in the data set with SK-BR-3 [6] is “Active”. In addition, the “growth inhibition (GI)” value in the data set with MCF7 [5] is “Dose-dependent effect”. The remaining at 6 h, 10000 µM in data set [3] is 80%.

With `O=C1C(Cl)C(c2ccc(Br)cc2)N1c1ccc(Br)cc1` (stereo unspecified), in the data set with NIH3T3, the Activity entry is listed as “Non-toxic”. In the data set on SK-BR-3 [4], the “growth inhibition (GI)” value is “Dose-dependent effect” and the IC50 amounted to 11.1 µM. Besides, in the data set with MCF7 [5], the “growth inhibition (GI)” value was “Dose-dependent effect” and the IC50 amounted to 16.7 µM. Moreover, the remaining at 6 h, 10000 µM in data set [3] is 87%.

As to `O=C1C(Cl)C(c2ccc(Cl)cc2)N1c1ccccc1` (stereo unspecified), in the data set on NIH3T3, the Activity result was “Non-toxic”. The “growth inhibition (GI)” value in the data set with SK-BR-3 [6] and in the data set on MCF7 [7] was “Active” throughout. Further, the remaining at 6 h, 10000 µM in data set [3] is 83%.

Consider `Oc1ccc(/C=C\c2cc(O)cc(O)c2)cc1` [CIS-RESVERATROL], for which the IC50 with SK-BR-3 [4] was found to be 41.2 µM; in the data set on MCF7 [5] it was 28.4 µM. The remaining at 6 h, 10000 µM in [3] was 31%.

`O=C1C(Cl)C(c2ccccc2)N1c1ccccc1` (stereo unspecified): the Activity result in the data set on NIH3T3 is on record as “Non-toxic”. The “growth inhibition (GI)” value in the data set with SK-BR-3 [6] was “Active”. Moreover, the “growth inhibition (GI)” value in the data set on MCF7 [8] is “inactive”. Also, the remaining at 6 h, 10000 µM in data set [3] was 78%.

A word on the IC50: it is the point on the concentration scale where inhibition reaches its midpoint.
